Experimental data reported in patent US11584714B2 (priority 2018, dated 2023).
pIC50, pKi: −log10 of the molar value. Where two headings read alike, the source gives them in different places.

Key:
Type in all cases: biochemical
[1] = biological target: human α-thrombin (Homo sapiens (Human), UniProt P00734); assay: Enzymatic assay for thrombin (Boc-VPR-AMC substrate); settings: for pKi: read-out: Thrombin Ki
[2] = system: Lectin Pathway; assay: Lectin pathway activation assay in human serum (mannan-coated ELISA, C3c detection); settings: 1% human serum
[3] = biological target: MASP-2 (CCP1-CCP2-SP) (Homo sapiens (Human), UniProt O00187); assay: biochemical
Sequence of MASP-2 (CCP1-CCP2-SP) (O00187 445-686): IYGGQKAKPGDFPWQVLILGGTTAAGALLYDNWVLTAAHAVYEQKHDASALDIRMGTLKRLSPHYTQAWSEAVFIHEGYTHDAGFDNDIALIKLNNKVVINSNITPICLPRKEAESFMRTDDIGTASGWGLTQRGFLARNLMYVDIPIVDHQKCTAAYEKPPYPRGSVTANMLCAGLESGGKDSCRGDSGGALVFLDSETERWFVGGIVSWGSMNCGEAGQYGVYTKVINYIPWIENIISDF

[4] = MASP-2 inhibition versus thrombin

Structure (SMILES)	pKi [1]	pIC50 [2]	MASP-2 vs. thrombin selectivity [3, 4]	pKi ([3]; read-out: MASP-2 Ki)	Ki ([1]; Thrombin Ki (μM))	pKi [3]	MASP-2 vs. thrombin selectivity ([3]; selectivity for MASP-2 inhibition versus thrombin)
C[C@H](NC(=O)[C@H](N)Cc1csc2ccccc12)C(=O)NCc1ccc(C(=N)N)cc1 [compound 1099]	> 6.30	6.30 to 7.30	−− (less than 1.0-fold)	> 6.30			
Cc1ccc(CSC(C)(C)[C@@H](N)C(=O)N2CC[C@H]2C(=O)NCc2ccc(C(=N)N)cc2)cc1 [compound 1133]	> 6.30	4.30 to 5.30	−− (less than 1.0-fold)	> 6.30			
N=C(N)c1ccc(CNC(=O)[C@@H]2CCN2C(=O)[C@H](NCC(=O)O)C2CCCC2)cc1 [compound 1083]	> 6.30	4.30 to 5.30	−− (less than 1.0-fold)	> 6.30			
N=C(N)c1ccc(CNC(=O)[C@@H]2CCN2C(=O)[C@H](N)CCCc2ccccc2)cc1 [compound 1069]	> 6.30	5.30 to 6.30	−− (less than 1.0-fold)	> 6.30			
N=C(N)c1ccc(CNC(=O)[C@@H]2CCN2C(=O)[C@H](NCC(=O)O)C2Cc3ccccc3C2)cc1 [compound 1129]	> 6.30	5.30 to 6.30	−− (less than 1.0-fold)	> 6.30			
N=C(N)c1ccc(CNC(=O)[C@@H]2CCN2C(=O)[C@H](NCC(=O)O)C2CCCCC2)cc1O [compound 1116, ((R)-2-((S)-2-((4-Carbamimidoyl-3-hydroxybenzyl)carbamoyl)azetidin-1-yl)-1-cyclohexyl-2-oxoethyl)glycine]	> 6.30	4.30 to 5.30					
N=C(N)c1ccc(CNC(=O)[C@@H]2CCCN2C(=O)[C@H](NCC(=O)O)C2CCCCC2)cc1 [compound 1115]	> 6.30	5.30 to 6.30	−− (less than 1.0-fold)	> 6.30			
N=C(N)c1ccc(CNC(=O)[C@@H]2CCN2C(=O)[C@H](N)c2ccccc2)cc1 [compound 1011, (S)-1-((R)-2-amino-2-phenylacetyl)-N-(4-carbamimidoylbenzyl)azetidine-2-carboxamide]	> 6.30	5.30 to 6.30	−− (less than 1.0-fold)	> 6.30			
N=C(N)c1ccc(CNC(=O)[C@@H]2CCN2C(=O)[C@@H](Cc2ccccc2)NCC(=O)O)cc1 [compound 1109]	> 6.30	< 4.30					
N=C(N)c1ccc(CNC(=O)[C@@H]2CCCCN2C(=O)[C@H](NCC(=O)O)C2CCCCC2)cc1 [compound 1127]	> 6.30	4.30 to 5.30					
N=C(N)c1ccc(CNC(=O)[C@@H]2CCN2C(=O)[C@H](N)C2CCCC2)cc1 [compound 1008]	> 6.30	4.30 to 5.30					
N=C(N)c1ccc(CNC(=O)[C@@H]2CCCCN2C(=O)[C@H](N)C2CCCCC2)cc1 [compound 1051]	> 6.30	4.30 to 5.30					
C[C@H](NC(=O)c1cc(-c2ccccc2)c(-c2ccccc2)[nH]1)C(=O)NCc1ccc(C(=N)N)cc1 [compound 1240, (S)—N-(1-((4-Carbamimidoylbenzyl)amino)-1-oxopropan-2-yl)-4,5-diphenyl-1H-pyrrole-2-carboxamide]		5.30 to 6.30			10 to 25 µM	5.60 to 6.30	** (≥5.0 to <25-fold)
C[C@H](NC(=O)[C@H](N)C1Cc2ccccc2C1)C(=O)NCc1ccc(C(=N)N)cc1 [compound 1035]	> 6.30	> 7.30	** (5.0 to 25-fold)	> 6.30			
CC(C)(C)[C@@H](NCC(=O)O)C(=O)N1CC[C@H]1C(=O)NCc1ccc(C(=N)N)cc1 [compound 1055]	> 6.30	4.30 to 5.30					
N=C(N)c1ccc(CNC(=O)[C@@H]2CCN2C(=O)[C@H](N)Cc2ccccc2)cc1 [compound 1023]	> 6.30	4.30 to 5.30					
C[C@H](NC(=O)[C@H]1C[C@@H](c2ccccc2)CCN1)C(=O)NCc1ccc(N)nc1 (stereo in doubt) [compound 1025]	< 4.60	5.30 to 6.30					
